Results as given in patent publication US10300020B2 (West-Ward Pharmaceuticals International Limited, priority 2005, dated 2019).

Details: calcium acetate used in Example 1
Source text: In another preferred embodiment, the bulk density is between about 0.30 g/cc to about less than 0.55 g/cc. More preferably the bulk density is between about 0.30 g/cc to about 0.45 g/cc.

**Q.** For `CC(=O)[O-].CC(=O)[O-].[Ca+2]` [calcium acetate], which bulk density is on record?
**A.** 0.47 g/cc
